Here are results for 16 molecules from patent US4587046A, “Drug-carrier conjugates” (The Regents of the University of California, priority 1982, dated 1986).

SMILES strings stand for the structures. Square brackets hold non-standard residues; d marks the D form. Peptide text beside a SMILES is read from it. * marks the point of attachment. Phe(4-NH2) = Nc1ccc(C[C@H](N)C(=O)O)cc1; X1 = CC(CCCCC(=O)*)NCC(O)c1ccc(O)c(O)c1; Nva(5-OH) = N[C@@H](CCCO)C(=O)O; Boc = CC(C)(C)OC(=O)*

One assay relates to S49 cells. The assay is described as follows: wild type S49 cell assay, cyclic AMP accumulation (relative beta adrenergic activity). The assay is classed as cell-based. The note with it: in vitro, ratio of KA for isoproterenol to KA for the compound, isoproterenol = 1. How it is done:
The biological activity of the conjugates of the invention was tested in a wild type S49 cell assay. The assay is indicative of the relative beta adrenergic activity of the compound. The activity of each conjugate tested was compared to the activity of isoproterenol as the base standard. In the test, S49 cells were centrifuged and then resuspended (2 to 2.5×10^6 cells per ml.) in Dulbecco's modified Eagle medium (13.3 g per liter) and 20 mM Hepes (pH 7.4)+0.1% bovine serum albumin. The S49 suspensions were incubated at 37° C. for 10 minutes without the conjugate and then added to tubes with or without the conjugate for an additional 6 minutes. The reaction was stopped by cooling on ice. Incubation without the conjugates present established a base line. After isolation of a pellet of cells by centrifugation they were resuspended and boiled. Aliquots were then used for the competitive binding assay for cyclic AMP described by Gilman in the Procedings of the National Academy of Sciences USA 67, 305-312 (1970). Results were plotted as pmol cyclic AMP accumulated per 10^7 cells in excess of base line as a function of the log of the concentration of the analog. | ^a Biological activity was measured by cyclic AMP accumulation in S49 | cells. Relative activity is expressed as the ration of KA for | isoproterenol to KA for the compound.

In another assay the test system is rat blood pressure. Nature of the assay: in vivo reduction of rat blood pressure after injection into the femoral vein. Also on record: species or system male Sprague-Dawley rats. As to conditions: 0.001 to 10.0 mg/kg, ratio of molar ED50 of isoproterenol to molar ED50 of the compound (dose that reduces rat blood pressure by 50%). How it is done:
In addition to the in vitro testing set forth above, in vivo testing was also conducted on a number of conjugates of the invention. The tests were conducted by injecting various doses of the test conjugate into the femoral vein of rats and thereafter recording changes in heart rate, arterial pulse pressure and mean pressure.
More specifically, male Sprague-Dawley rats weighing 280-350 g had their femoral arteries connected to a Statham P-23 pressure transducer, which was in turn recorded on a Beckman Dynograph model R511A. Venus cannula were inserted in the femoral veins. Two syringes were attached to the veins via a 3-way stopcock. One syringe contained heparinized saline (40 units/ml) while the other contained the conjugate to be tested.
All cannulas were periodically flushed with the heparinized saline to prevent clots from forming. After the blood pressure and heart rate had stabilized, a volume of heparinized saline corresponding to the volume of drug conjugate the animal was to receive, was injected, and the response observed. Then various doses of the test drug conjugate were injected with a minimum interval of ten minutes between doses. The dose range was from 0.001 to 10.0 mg/kg, with the doses always being administered in increasing amounts. From the drug injections, a dose-response curve was obtained. The response curves were then compared to the animals' response to isoproterenol administered under the same conditions. Table 3 below presents the results of these in vivo tests:
^a Biological activity in vivo was measured as the effective dose tha
reduces rat blood pressure by 50%. Relative activity is expressed as the
ratio of the molar ED50 of isoproterenol to the molar ED50 of […]

As to `CC(=O)N[C@H](Cc1ccc(NC(=O)CCCCC(C)NCC(O)c2ccc(O)c(O)c2)cc1)C(=O)NCCCO` (some centres unmarked) [B], the “Activity relative to isoproterenol” value in the assay on S49 cells is on record as 4.0 × 10^-1.

With `CNC(=O)CNC(=O)[C@H](Cc1ccc(NC(=O)CCCCC(C)NCC(O)c2ccc(O)c(O)c2)cc1)NC(=O)[C@H](CCCNC(N)=O)NC(=O)OC(C)(C)C` (some centres unmarked) [K], the “Activity relative to isoproterenol” value in the assay with S49 cells is 3.8 × 10^-5. The “In Vivo Activity Relative to Isoproterenol” value in the assay on rat blood pressure is recorded as “.22”.

`CNC(=O)CNC(=O)[C@H](Cc1ccc(NC(=O)CCCCC(C)NCC(O)c2ccc(O)c(O)c2)cc1)NC(=O)[C@H](CCCO)NC(C)=O` (some centres unmarked) [I]: the “Activity relative to isoproterenol” value in the assay with S49 cells is 8.0 × 10^-5. In the assay on rat blood pressure, the “In Vivo Activity Relative to Isoproterenol” value is given as 1.48.

For the molecule `CNC(=O)CC[C@H](NC(C)=O)C(=O)N[C@@H](Cc1ccc(NC(=O)CCCCCC(C)NCC(O)c2ccc(O)c(O)c2)cc1)C(=O)N[C@@H](CCC(=O)NC)C(=O)NC` (some centres unmarked) [N], the “Activity relative to isoproterenol” value in the assay with S49 cells is on record as 8.6 × 10^-6.

Regarding `CNC(=O)CC[C@H](NC(C)=O)C(=O)N[C@@H](Cc1ccc(NC(=O)CCCCC(C)NCC(O)c2ccc(O)c(O)c2)cc1)C(=O)NCC(=O)NC` (some centres unmarked) [H], the “Activity relative to isoproterenol” value in the assay with S49 cells is 3.7 × 10^-6. The “In Vivo Activity Relative to Isoproterenol” value in the assay on rat blood pressure stood at 1.77.

In the case of `CNC(=O)CC[C@H](NC(C)=O)C(=O)N[C@@H](Cc1ccc(NC(=O)CCCCC(C)NCC(O)c2ccc(O)c(O)c2)cc1)C(=O)N[C@@H](CCC(=O)NC)C(=O)NC` (stereo partly drawn) [M, N^α -Acetyl-N'-Methyl-L-Glutaminyl-p-[6-(β-3',4'-Dihydroxyphenyl-β-Hydroxy)-Ethylamino-n-Heptanoylamino]-L-Phenylalanyl-N'-Methyl-L-Glutaminyl-Methylamide], in the assay with S49 cells, the “Activity relative to isoproterenol” value was 2.3 × 10^-5.

As for `CNC(=O)CC[C@H](NC(C)=O)C(=O)N[C@@H](Cc1ccc(NC(=O)CCCC(C)NCC(O)c2ccc(O)c(O)c2)cc1)C(=O)N[C@@H](CCC(=O)NC)C(=O)NC` (some centres unmarked) [L], the “Activity relative to isoproterenol” value in the assay on S49 cells is 4.5 × 10^-6.

Regarding `CNC(=O)[C@H](Cc1ccc(NC(=O)CCCCC(C)NCC(O)c2ccc(O)c(O)c2)cc1)NC(=O)CNC(=O)OC(C)(C)C` (some centres unmarked) [G], in the assay with S49 cells, the “Activity relative to isoproterenol” value is recorded as 6.8 × 10^-1. Besides, the “In Vivo Activity Relative to Isoproterenol” value in the assay with rat blood pressure was “.92”.

Regarding `CNC(=O)CNC(=O)[C@@H](N)Cc1ccc(NC(=O)CCCCC(C)NCC(O)c2ccc(O)c(O)c2)cc1` (some centres unmarked) [F], the “Activity relative to isoproterenol” value in the assay with S49 cells is 1.3 × 10^-4.

In the case of `CNC(=O)CNC(=O)[C@H](CCCO)NC(=O)[C@H](CCCO)NC(=O)[C@H](CCCO)NC(=O)[C@H](Cc1ccc(NC(=O)CCCCC(C)NCC(O)c2ccc(O)c(O)c2)cc1)NC(=O)OC(C)(C)C` (some centres unmarked) [P] (Boc-[Phe(4-NH2)](X1)[Nva(5-OH)][Nva(5-OH)][Nva(5-OH)]G-NHMe), the “Activity relative to isoproterenol” value in the assay with S49 cells is 7.9 × 10^-1. Further, in the assay with rat blood pressure, the “In Vivo Activity Relative to Isoproterenol” value is “.59”.

Take `CNC(=O)CNC(=O)[C@H](Cc1ccc(NC(=O)CCCCC(C)NCC(O)c2ccc(O)c(O)c2)cc1)NC(=O)[C@H](CCCO)NC(=O)[C@H](CCCO)NC(=O)[C@H](CCCO)NC(=O)OC(C)(C)C` (some centres unmarked) [O] (Boc-[Nva(5-OH)][Nva(5-OH)][Nva(5-OH)][Phe(4-NH2)](X1)G-NHMe): in the assay on S49 cells, the “Activity relative to isoproterenol” value amounted to 1.0. Besides, in the assay on rat blood pressure, the “In Vivo Activity Relative to Isoproterenol” value is “.76”.

As for `CNC(=O)CNC(=O)[C@H](Cc1ccc(NC(=O)CCCCC(C)NCC(O)c2ccc(O)c(O)c2)cc1)NC(C)=O` (stereo partly drawn) [D, N^α -Acetyl-p-[6-(β-3',4-Dihydroxyphenyl-β-Hydroxy)-Ethylamino-n-Heptanoylamino]-L-Phenylalanyl-Glycyl-Methylamide], the “Activity relative to isoproterenol” value in the assay on S49 cells came to 1.1.

Regarding `CC(=O)N[C@@H](Cc1ccc(NC(=O)CCCCC(C)NCC(O)c2ccc(O)c(O)c2)cc1)C(=O)NCC(=O)O` (some centres unmarked) [C], the “Activity relative to isoproterenol” value with S49 cells is 4.4 × 10^-1.

In the case of `CNC(=O)CNC(=O)[C@H](Cc1ccc(NC(=O)CCCCC(C)NCC(O)c2ccc(O)c(O)c2)cc1)NC(=O)[C@H](CCCNC(N)=O)NC(C)=O` (some centres unmarked) [J], in the assay on rat blood pressure, the “In Vivo Activity Relative to Isoproterenol” value is “.79”.

In the case of `CNC(=O)CNC(=O)[C@H](Cc1ccc(NC(=O)CCCCC(C)NCC(O)c2ccc(O)c(O)c2)cc1)NC(=O)OC(C)(C)C` (stereo partly drawn) [E, N^α -t-Butyloxycarbonyl-p-[6-(β-3',4'-Dihydroxyphenyl-β-Hydroxy)-Ethylamino-n-Heptanoylamino]-L-Phenylalanyl-Glycyl-Methylamide], in the assay with S49 cells, the “Activity relative to isoproterenol” value was found to be 4.1. Further, the “In Vivo Activity Relative to Isoproterenol” value in the assay with rat blood pressure is recorded as 3.74.

Consider `CC(=O)N[C@@H](Cc1ccc(NC(=O)CCCCC(C)NCC(O)c2ccc(O)c(O)c2)cc1)C(=O)NCCCO` (some centres unmarked) [A], for which the “Activity relative to isoproterenol” value in the assay with S49 cells was 9.0 × 10^-2.
